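Exposure lasted 48 hours, with cells grown in 96-well plates and compounds tested at five concentrations. TGI marks complete inhibition of growth.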
Assays:
Assay in all cases: growth of human tumour cells (NCI), 48 h
[1] = test system: SK-MEL-5 melanoma
[2] = test system: MDA-MB-231 breast
[3] = test system: NCI-H226 lung
[4] = test system: 786-0 renal
[5] = test system: RXF 393 renal
[6] = test system: OVCAR-8 ovarian
[7] = test system: TK-10 renal
[8] = test system: SF-539 CNS
[9] = test system: HOP-92 NSCLC
[10] = test system: K-562 leukemia
[11] = test system: MDA-N
[12] = test system: HS 578T breast
[13] = test system: SN12C renal
[14] = test system: PC-3 prostate
[15] = test system: MCF7 breast
[16] = test system: SR leukemia
[17] = test system: SF-268 CNS
[18] = test system: SK-MEL-2 melanoma
[19] = test system: NCI-H522 lung
[20] = test system: SK-MEL-28 melanoma
[21] = test system: T-47D breast
[22] = test system: SW-620 colon
[23] = test system: NCI-H23 lung
[24] = test system: EKVX NSCLC
[25] = test system: HT29 colon
[26] = test system: CCRF-CEM leukemia
[27] = test system: NCI-H460 lung
[28] = test system: SF-295 CNS
[29] = test system: SK-OV-3 ovarian
[30] = test system: SNB-75 CNS
[31] = test system: COLO 205 colon
[32] = test system: OVCAR-4 ovarian
[33] = test system: HCT-116 colon
[34] = test system: ACHN renal
[35] = test system: A549 NSCLC
[36] = test system: MALME-3M melanoma
[37] = test system: LOX IMVI melanoma
[38] = test system: NCI/ADR-RES ovarian
[39] = test system: UACC-257 melanoma
[40] = test system: DU-145 prostate
[41] = test system: IGROV1 ovarian
[42] = test system: HCC-2998 colon
[43] = test system: CAKI-1 renal
[44] = test system: HCT-15 colon
[45] = test system: MDA-MB-435
[46] = test system: A498 renal
[47] = test system: SNB-19 CNS
[48] = test system: UO-31 renal
[49] = test system: UACC-62 melanoma
[50] = test system: BT-549 breast
[51] = test system: KM12 colon
[52] = test system: M14 melanoma
[53] = test system: OVCAR-5 ovarian
[54] = test system: U251 CNS
[55] = test system: OVCAR-3 ovarian
[56] = test system: MOLT-4 leukemia
[57] = test system: HL-60(TB) leukemia
[58] = test system: RPMI-8226 leukemia
[59] = test system: HOP-62 NSCLC

Question: What does the source list for `C/C(=N\N=C(\N)SB(F)F)c1ccc2ccccc2c1`?
Answer: TGI [1]: > 100 µM; TGI [2]: > 100 µM; TGI [3]: > 100 µM; TGI [4]: > 100 µM; TGI [5]: > 100 µM; TGI [6]: > 100 µM; TGI [7]: > 100 µM; TGI [8]: > 100 µM; TGI [9]: > 100 µM; TGI [10]: > 100 µM; TGI [11]: > 100 µM; TGI [12]: > 100 µM; TGI [13]: > 100 µM; TGI [14]: > 100 µM; TGI [15]: > 100 µM; TGI [16]: > 100 µM; TGI [17]: > 100 µM; TGI [18]: > 100 µM; TGI [19]: 72 µM; TGI [20]: > 100 µM; TGI [21]: > 100 µM; TGI [22]: > 100 µM; TGI [23]: > 100 µM; TGI [24]: > 100 µM; TGI [25]: > 100 µM; TGI [26]: 56.7 µM; TGI [27]: > 100 µM; TGI [28]: > 100 µM; TGI [29]: > 100 µM; TGI [30]: > 100 µM; TGI [31]: > 100 µM; TGI [32]: > 100 µM; TGI [33]: > 100 µM; TGI [34]: > 100 µM; TGI [35]: > 100 µM; TGI [36]: > 100 µM; TGI [37]: > 100 µM; TGI [38]: > 100 µM; TGI [39]: > 100 µM; TGI [40]: > 100 µM; TGI [41]: > 100 µM; TGI [42]: > 100 µM; TGI [43]: > 100 µM; TGI [44]: > 100 µM; TGI [45]: > 100 µM; TGI [46]: > 100 µM; TGI [47]: > 100 µM; TGI [48]: > 100 µM; TGI [49]: > 100 µM; TGI [50]: > 100 µM; TGI [51]: > 100 µM; TGI [52]: > 100 µM; TGI [53]: > 100 µM; TGI [54]: > 100 µM

Question: What does the source list for `Cc1ccc(/C=N/n2c(-c3ccc(C)cc3)n[nH]c2=O)cc1`?
Answer: TGI [1]: > 100 µM; TGI [2]: > 100 µM; TGI [3]: > 100 µM; TGI [4]: > 100 µM; TGI [5]: 72.9 µM; TGI [6]: > 100 µM; TGI [7]: > 100 µM; TGI [8]: > 100 µM; TGI [9]: > 100 µM; TGI [10]: > 100 µM; TGI [11]: > 100 µM; TGI [55]: > 100 µM; TGI [12]: > 100 µM; TGI [13]: > 100 µM; TGI [14]: > 100 µM; TGI [15]: > 100 µM; TGI [16]: 61.3 µM; TGI [17]: > 100 µM; TGI [18]: > 100 µM; TGI [19]: > 100 µM; TGI [20]: > 100 µM; TGI [21]: > 100 µM; TGI [22]: > 100 µM; TGI [23]: > 100 µM; TGI [24]: > 100 µM; TGI [25]: > 100 µM; TGI [26]: > 100 µM; TGI [27]: > 100 µM; TGI [56]: > 100 µM; TGI [28]: > 100 µM; TGI [57]: > 100 µM; TGI [29]: 66.9 µM; TGI [30]: > 100 µM; TGI [31]: > 100 µM; TGI [58]: > 100 µM; TGI [32]: > 100 µM; TGI [33]: > 100 µM; TGI [34]: > 100 µM; TGI [35]: > 100 µM; TGI [36]: > 100 µM; TGI [38]: > 100 µM; TGI [39]: > 100 µM; TGI [40]: > 100 µM; TGI [41]: > 100 µM; TGI [42]: > 100 µM; TGI [43]: > 100 µM; TGI [44]: > 100 µM; TGI [59]: > 100 µM; TGI [45]: > 100 µM; TGI [46]: 95.1 µM; TGI [47]: > 100 µM; TGI [48]: > 100 µM; TGI [49]: > 100 µM; TGI [50]: > 100 µM; TGI [51]: > 100 µM; TGI [52]: > 100 µM; TGI [53]: > 100 µM; TGI [54]: > 100 µM

From PubChem BioAssay (NCI)
